# From ChEMBL document CHEMBL2331514, “Structure-based design and synthesis of novel pseudosaccharine derivatives as antiproliferative agents and kinase inhibitors” (Eur J Med Chem, 2013)
# What was measured:
# KM12 = test: Cytotoxicity against human KM12 cells assessed as growth inhibition at 10 uM after 48 hrs by SRB assay; format: functional; conditions: KM12, 48 h, read-out: GI
# T47D [1] = test: Cytotoxicity against human T47D cells after 48 hrs by SRB assay; format: functional
# IGROV-1 = test: Cytotoxicity against human IGROV1 cells assessed as growth inhibition at 10 uM after 48 hrs by SRB assay; format: functional; conditions: IGROV-1, 48 h, read-out: GI
# A549 = test: Cytotoxicity against human A549/ATCC cells assessed as growth inhibition at 10 uM after 48 hrs by SRB assay; format: functional; conditions: A549, 48 h, read-out: GI
# BT-549 = test: Cytotoxicity against human BT549 cells after 48 hrs by SRB assay; format: functional; conditions: BT-549, 48 h, pooled result: one value given for 51 cell lines, strains, targets or settings
# RPMI-8226 [2] = test: Cytotoxicity against human RPMI8226 cells after 48 hrs by SRB assay; format: functional; conditions: RPMI-8226, 48 h
# SK-OV-3 = test: Cytotoxicity against human SKOV3 cells assessed as growth inhibition at 10 uM after 48 hrs by SRB assay; format: functional; conditions: SK-OV-3, 48 h, read-out: GI
# NCI-H226 = test: Cytotoxicity against human NCI-H226 cells assessed as growth inhibition at 10 uM after 48 hrs by SRB assay; format: functional; conditions: NCI-H226, 48 h, read-out: GI
# MCF7 [3] = test: Cell cycle arrest in human MCF7 cells assessed as accumulation at G2/M phase at 10 uM after 24 hrs by propidium iodide staining-based FACS analysis (reference value: 4.80 %); format: functional
# RPMI-8226 [4] = test: Cytotoxicity against human RPMI8226 cells assessed as growth inhibition at 10 uM after 48 hrs by SRB assay; format: functional; conditions: RPMI-8226, 48 h, read-out: GI
# MDA-MB-231 = test: Cytotoxicity against human MDA-MB-231 cells assessed as growth inhibition at 10 uM after 48 hrs by SRB assay; format: functional; conditions: MDA-MB-231, 48 h, read-out: GI
# ACHN = test: Cytotoxicity against human ACHN cells assessed as growth inhibition at 10 uM after 48 hrs by SRB assay; format: functional; conditions: read-out: GI
# [5] = Cytotoxicity against human EKVX cells assessed as growth inhibition at 10 uM after 48 hrs by SRB assay; format: functional; conditions: read-out: GI
# MCF7 [6] = test: Cytotoxicity against human MCF7 cells after 48 hrs by SRB assay; format: functional; conditions: MCF7, 48 h
# [7] = target: Tyrosine-protein kinase ZAP-70 (Homo sapiens) (UniProt P43403); test: Inhibition of ZAP-70 kinase (unknown origin) using [33P]-ATP at 10 uM after 20 to 40 mins by scintillation counting analysis
# HCC 2998 = test: Cytotoxicity against human HCC2998 cells assessed as growth inhibition at 10 uM after 48 hrs by SRB assay; format: functional; conditions: HCC 2998, 48 h, read-out: GI
# SNB-75 = test: Cytotoxicity against human SNB75 cells assessed as growth inhibition at 10 uM after 48 hrs by SRB assay; format: functional; conditions: SNB-75, 48 h, read-out: GI
# [8] = Cytotoxicity against human NCI-ADR-RES cells assessed as growth inhibition at 10 uM after 48 hrs by SRB assay; format: functional; conditions: read-out: GI
# SK-MEL-5 = test: Cytotoxicity against human SK-MEL-5 cells assessed as growth inhibition at 10 uM after 48 hrs by SRB assay; format: functional; conditions: SK-MEL-5, 48 h, read-out: GI
# MDA-MB-468 = test: Cytotoxicity against human MDA-MB-468 cells after 48 hrs by SRB assay; format: functional; conditions: MDA-MB-468, 48 h
# SW-620 = test: Cytotoxicity against human SW620 cells assessed as growth inhibition at 10 uM after 48 hrs by SRB assay; format: functional; conditions: SW-620, 48 h, read-out: GI
# [9] = target: Serine/threonine-protein kinase B-raf (Homo sapiens) (UniProt P15056); test: Inhibition of B-Raf kinase (unknown origin) using [33P]-ATP at 10 uM after 20 to 40 mins by scintillation counting analysis
# MDA-MB-435 = test: Cytotoxicity against human MDA-MB-435 cells assessed as growth inhibition at 10 uM after 48 hrs by SRB assay; format: functional; conditions: MDA-MB-435, 48 h, read-out: GI
# NCI-H23 = test: Cytotoxicity against human NCI-H23 cells after 48 hrs by SRB assay; format: functional; conditions: NCI-H23, 48 h
# HOP-92 = test: Cytotoxicity against human HOP92 cells assessed as growth inhibition at 10 uM after 48 hrs by SRB assay; format: functional; conditions: HOP-92, 48 h, read-out: GI
# PC-3 = test: Cytotoxicity against human PC3 cells after 48 hrs by SRB assay; format: functional; conditions: PC-3, 48 h
# SN12C = test: Cytotoxicity against human SN12C cells assessed as growth inhibition at 10 uM after 48 hrs by SRB assay; format: functional; conditions: read-out: GI
# SF-295 = test: Cytotoxicity against human SF295 cells after 48 hrs by SRB assay; format: functional; conditions: SF-295, 48 h
# OVCAR-5 = test: Cytotoxicity against human OVCAR5 cells assessed as growth inhibition at 10 uM after 48 hrs by SRB assay; format: functional; conditions: OVCAR-5, 48 h, read-out: GI
# HT-29 = test: Cytotoxicity against human HT-29 cells assessed as growth inhibition at 10 uM after 48 hrs by SRB assay; format: functional; conditions: HT-29, 48 h, read-out: GI
# HCT-116 = test: Cytotoxicity against human HCT116 cells assessed as growth inhibition at 10 uM after 48 hrs by SRB assay; format: functional; conditions: HCT-116, 48 h, read-out: GI
# [10] = target: Proto-oncogene tyrosine-protein kinase Src (Homo sapiens) (UniProt P12931); test: Inhibition of Src kinase (unknown origin) using [33P]-ATP at 10 uM after 20 to 40 mins by scintillation counting analysis
# MCF7 [11] = test: Cell cycle arrest in human MCF7 cells assessed as accumulation at G0 phase at 10 uM after 24 hrs by propidium iodide staining-based FACS analysis (reference value: 1.30 %); format: functional
# MCF7 [12] = test: Cell cycle arrest in human MCF7 cells assessed as accumulation at G1 phase at 10 uM after 24 hrs by propidium iodide staining-based FACS analysis (reference value: 58.50 %); format: functional
# T47D [13] = test: Cytotoxicity against human T47D cells assessed as growth inhibition at 10 uM after 48 hrs by SRB assay; format: functional; conditions: read-out: GI
# MCF7 [14] = test: Cell cycle arrest in human MCF7 cells assessed as accumulation at S phase at 10 uM after 24 hrs by propidium iodide staining-based FACS analysis (reference value: 36.60 %); format: functional
# [15] = read-out: LC50 (the source's name)
# Sequence of Serine/threonine-protein kinase B-raf (Homo sapiens) (P15056 whole entry): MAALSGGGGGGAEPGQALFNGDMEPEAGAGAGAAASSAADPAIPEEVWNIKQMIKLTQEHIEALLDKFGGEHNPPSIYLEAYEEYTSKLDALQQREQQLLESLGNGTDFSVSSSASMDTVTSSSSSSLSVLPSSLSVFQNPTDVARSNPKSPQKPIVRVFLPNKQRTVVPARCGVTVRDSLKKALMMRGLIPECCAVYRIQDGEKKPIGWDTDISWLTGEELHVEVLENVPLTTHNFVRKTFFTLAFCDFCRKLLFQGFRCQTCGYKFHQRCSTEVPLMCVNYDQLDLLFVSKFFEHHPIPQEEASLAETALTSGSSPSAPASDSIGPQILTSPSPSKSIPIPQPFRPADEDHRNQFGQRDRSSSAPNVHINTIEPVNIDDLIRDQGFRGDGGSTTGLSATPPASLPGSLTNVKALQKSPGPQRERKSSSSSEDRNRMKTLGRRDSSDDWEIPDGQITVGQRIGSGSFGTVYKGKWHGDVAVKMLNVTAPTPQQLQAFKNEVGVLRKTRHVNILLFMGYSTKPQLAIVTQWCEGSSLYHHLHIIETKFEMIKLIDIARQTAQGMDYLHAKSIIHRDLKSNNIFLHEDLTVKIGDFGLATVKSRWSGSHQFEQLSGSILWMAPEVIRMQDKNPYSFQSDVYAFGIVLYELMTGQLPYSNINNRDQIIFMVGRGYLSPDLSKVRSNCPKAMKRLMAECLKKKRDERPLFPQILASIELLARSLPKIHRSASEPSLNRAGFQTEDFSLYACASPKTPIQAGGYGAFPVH
# Sequence of Tyrosine-protein kinase ZAP-70 (Homo sapiens) (P43403 whole entry): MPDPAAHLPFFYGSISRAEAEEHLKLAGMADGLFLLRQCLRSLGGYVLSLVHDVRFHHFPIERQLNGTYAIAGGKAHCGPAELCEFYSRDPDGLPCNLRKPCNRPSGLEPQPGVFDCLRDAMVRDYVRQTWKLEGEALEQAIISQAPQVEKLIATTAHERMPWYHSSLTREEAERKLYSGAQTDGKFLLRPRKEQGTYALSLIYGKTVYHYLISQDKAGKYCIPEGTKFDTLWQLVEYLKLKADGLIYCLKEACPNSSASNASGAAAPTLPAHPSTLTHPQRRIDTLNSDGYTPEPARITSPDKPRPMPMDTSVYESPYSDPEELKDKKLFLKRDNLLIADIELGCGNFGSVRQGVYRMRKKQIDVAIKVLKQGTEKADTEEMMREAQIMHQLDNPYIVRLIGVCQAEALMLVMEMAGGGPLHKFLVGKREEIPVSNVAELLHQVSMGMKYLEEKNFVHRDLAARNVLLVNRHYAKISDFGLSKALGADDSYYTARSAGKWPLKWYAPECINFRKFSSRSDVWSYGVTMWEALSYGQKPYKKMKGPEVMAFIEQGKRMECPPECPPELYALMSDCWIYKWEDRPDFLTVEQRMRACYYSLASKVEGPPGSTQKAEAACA
# Sequence of Proto-oncogene tyrosine-protein kinase Src (Homo sapiens) (P12931 2-536 limits assumed): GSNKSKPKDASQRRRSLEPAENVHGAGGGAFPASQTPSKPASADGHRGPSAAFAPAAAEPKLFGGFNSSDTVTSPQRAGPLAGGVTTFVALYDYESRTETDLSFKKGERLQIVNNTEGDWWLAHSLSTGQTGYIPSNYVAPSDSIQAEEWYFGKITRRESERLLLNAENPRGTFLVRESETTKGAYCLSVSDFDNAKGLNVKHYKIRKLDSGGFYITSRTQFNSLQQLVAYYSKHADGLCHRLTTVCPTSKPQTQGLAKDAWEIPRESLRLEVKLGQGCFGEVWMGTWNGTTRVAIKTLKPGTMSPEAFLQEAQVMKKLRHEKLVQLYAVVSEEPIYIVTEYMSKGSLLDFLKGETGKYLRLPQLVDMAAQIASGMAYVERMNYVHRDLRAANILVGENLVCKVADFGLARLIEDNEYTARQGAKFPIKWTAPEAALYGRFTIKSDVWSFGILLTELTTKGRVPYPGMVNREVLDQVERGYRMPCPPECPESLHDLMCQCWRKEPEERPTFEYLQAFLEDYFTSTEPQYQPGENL
smiles,measurement,setting,value
O=C(Nc1ccc(Cl)cc1)Nc1ccc2c(c1)C(Nc1ccc(Cl)cc1Cl)=NS2(=O)=O,inhibition of growth at 10 µM,KM12,80%
same,GI50,T47D [1],2630 nM
same,TGI,T47D [1],> 100 µM
same,CC50,T47D [1]; [15],> 100 µM
same,inhibition of growth at 10 µM,IGROV-1,54%
same,inhibition of growth at 10 µM,A549,69%
same,GI50,BT-549,5.7 µM
same,GI50,RPMI-8226 [2],2190 nM
same,TGI,RPMI-8226 [2],15.5 µM
same,CC50,RPMI-8226 [2]; [15],> 100 µM
same,inhibition of growth at 10 µM,SK-OV-3,15%
same,inhibition of growth at 10 µM,NCI-H226,63%
same,Activity,MCF7 [3],6.4%
same,inhibition of growth at 10 µM,RPMI-8226 [4],98%
same,inhibition of growth at 10 µM,MDA-MB-231,43%
same,inhibition of growth at 10 µM,ACHN,85%
same,inhibition of growth at 10 µM,[5],71%
same,GI50,MCF7 [6],3.6 µM
same,inhibition,[7],13%
same,inhibition of growth at 10 µM,HCC 2998,72%
same,inhibition of growth at 10 µM,SNB-75,30%
same,inhibition of growth at 10 µM,[8],79%
same,inhibition of growth at 10 µM,SK-MEL-5,51%
same,GI50,MDA-MB-468,2750 nM
same,TGI,MDA-MB-468,> 100 µM
same,CC50,MDA-MB-468; [15],> 100 µM
same,inhibition of growth at 10 µM,SW-620,69%
same,inhibition,[9],-8%
same,inhibition of growth at 10 µM,MDA-MB-435,65%
same,GI50,NCI-H23,2690 nM
same,TGI,NCI-H23,12.3 µM
same,CC50,NCI-H23; [15],> 100 µM
same,inhibition of growth at 10 µM,HOP-92,82%
same,GI50,PC-3,2820 nM
same,TGI,PC-3,> 100 µM
same,CC50,PC-3; [15],> 100 µM
same,inhibition of growth at 10 µM,SN12C,67%
same,GI50,SF-295,2880 nM
same,TGI,SF-295,> 100 µM
same,CC50,SF-295; [15],> 100 µM
same,inhibition of growth at 10 µM,OVCAR-5,40%
same,inhibition of growth at 10 µM,HT-29,57%
same,inhibition of growth at 10 µM,HCT-116,91%
same,inhibition,[10],58%
same,Activity,MCF7 [11],1.4%
same,Activity,MCF7 [12],78.3%
same,inhibition of growth at 10 µM,T47D [13],87%
same,Activity,MCF7 [14],15.2%
